We go through four substances from patent US20040253243A1, “Aptamer therapeutics useful in ocular pharmacotherapy” (priority 2003, published 2004).

The target of data set [1] is T1, mouse (NTK) TGFβ2 (Homo sapiens, UniProt P61812, K396N/R362K/S361T).
T1 construct: A synthetic polynucleotide encoding full length human TGFβ2 mature protein was cloned into pRSET E. coli expression vector; made in house
T1 sequence (P61812 303-414 S361T/R362K/K396N): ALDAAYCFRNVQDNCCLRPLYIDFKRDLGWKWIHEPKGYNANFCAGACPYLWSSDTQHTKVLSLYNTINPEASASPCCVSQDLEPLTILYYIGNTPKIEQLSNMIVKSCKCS
The data set can be described thus: Nitrocellulose-filter binding to mouse TGFβ2. The conditions noted are these: FIG. 6C; read-out: binding affinity, mouse (NTK) TGFβ2. The procedure:
(§1) Dissociation constants for the binding of aptamers to purified human or rodent TGFβ-2 protein were determined by nitrocellulose-filter partitioning using ^32P-labeled RNA. In vitro transcribed RNA was treated with calf-intestinal alkaline phophatase (New England Biolabs) to remove 5′-triphosphates, then radio-labeled by incubation with γ-^32P-ATP and T4 polynucleotide kinase (New England Biolabs). Unincorporated label was removed by gel-filtration, and the RNAs were further purified by polyacrylamide gel electrophoresis (PAGE). Purified ^32P-labeled aptamer in water was refolded just prior to use by heating for 3 min at 95° C., followed by a 10 minute room-temperature incubation in binding buffer (50 mM Hepes, pH 7.4, 1 mM MgCl2, 1 mM CaCl2, 3 mM KCl, 140 mM NaCl, 0.1 mg/ml BSA, 0.01 mg/ml tRNA). The binding reactions (100 μL) were initiated by the addition of aptamer (≦0.1 nM) to excess TGFβ-2 protein (0.2-100 nM), followed by 10-30 minute equilibration at room temperature.
(§2) Nitrocellulose-filter partitioning was performed on Minifold® I, 96-well Dot-Blot manifolds (Schleicher & Schuell). Protein-bound aptamer and residual free aptamer were captured, respectively, on pre-wetted Protran nitrocellulose (Schleicher & Schuell) and Hybond-P polyvinylidene difluoride (Amersham Biosciences) filters by vacuum aspiration, and quantified by PhosphorImager (Amersham Biosciences). […]

The target in data set [2] is T2, human TGFβ2 (Homo sapiens, UniProt P61812).
T2 construct: two forms of mature TGFβ2 were generated, native and N-terminal his-tagged versions, in E. coli; made in house; host or cells: E. coli; added as soluble protein to MLEC
T2 sequence (P61812 303-414): T1 sequence (P61812 303-414 S361T/R362K/K396N) with T59S, K60R, N94K
The data set can be described thus: MLEC proliferation assay (reversal of TGFβ2-mediated inhibition, BrdU). The data set is classed as cell-based. As to conditions: for inhibition of the antiproliferative effects of TGFβ2: 50 pg/ml of TGFβ2, BrdU incorporation. As for the experimental part: (§3) MLECs were plated at 2,000 cells per well and incubated at 37° C. for 4 hours. Aptamer and TGFβ2 were added at the indicated concentrations for 16 hours at 37° C. Cell proliferation was measured using BrdU incorporation. BrdU assay was performed as recommended by the manufacturer (Roche Diagnostics).
(§4) MLEC Assay. The mink lung epithelial cell proliferation assay is performed over two days. On day 1:1) media is aspirated off from Mink Lung Epithelial Cells (MLEC); 2) the MLEC are washed with 10 ml 1×PBS; 3) 3 ml Trypsin is added and Trypsinize for 3 min at 37° C.; 4) quench with 10 ml 0.5% FBS media; 5) spin at 1000 rpm for 3.30 min; 6) aspirate off supernatant; 7) resuspend pellet in 10 ml 0.5% FBS media; 8) Count 10 μl cell suspension; 9) adjust cell density to 80,000 cells/ml; 10) add 50 μl of cells/well to black bottomed 96-well plates (4000 cells/well); pipet up and down during plating process to avoid settling of cells and uneven plating; 11) incubate cells at 37° C. in 5% CO2 for 4 hrs to allow adherence of cells; 12) add 25 μl of aptamer (or media, or other test reagent, such as for example, an antibody), preferably the outer wells are not used for treated cells; 13) add 25 μl of TGFβ2 (typically 25 pg/ml); and 14) incubate cells at 37° C. in 5% CO2 overnight.
(§5) On day 2:1) mix 20 μl BrdU with 2 ml 0.5% FBS media; 2) add 10 μl of BrdU mixture/well; 3) incubate cells at 37° C. in 5% CO2 for 3 hrs; 4) remove media and blot plates dry on paper towels; 5) add 200 μl/well FixDenat solution and incubate for 30 min at room temperature (RT); 6) remove FixDenat solution and blot plates dry on paper towels; 7) add 100 μl /well anti-BrdU POD solution and incubate for 90 min at RT; 8) remove anti-BrdU POD solution and blot plates dry on paper towels; 9) wash plates 3× with […] washing solution with 5 min RT incubations and blot plates dry on paper towels; 10) add 100 μl /well substrate solution and incubate for 3 min at RT in dark; and 11) read plates using PSP Luciferace 1 program on TopCount (Packard Bioscience Co., Downers Grove, Ill.).

For data set [3], the system named is human TGFβ2. Described as above. Type of data set: cell-based. The conditions noted are these: FIG. 6B. The procedure:
as §3, §4, §5

The subject of data set [4] is N-terminal His tagged human TGFβ2. The data set can be described thus: Nitrocellulose-filter binding to His-tagged TGFβ2. As to conditions: FIG. 6C; read-out: binding affinity, N-terminal His tagged human TGFβ2. As for the experimental part:
A synthetic polynucleotide encoding full length human TGFβ2 mature protein was cloned into pRSET E. coli expression vector and transformed into BL21 (pLys) strain. The transformed cells were grown under conditions leading to TGFβ2 protein being expressed at high level and forming inclusion bodies. The inclusion bodies were purified and solubilized. The TGFβ2 was refolded and purified by S75 size exclusion chromatography (FIG. 4A). A His-tagged TGFβ2 was also generated by adding His6 plus 30 extra amino acids at the N terminus of TGFβ2. Mutations at positions 59 (S→T), 60 (R→K) and 94 (K→N), referred to herein as the S59T/R60K/K94N mutant, were introduced by site directed mutagenesis. Both the His-tagged and mutated TGFβ2 were expressed, refolded and purified using the same protocol as for wild type TGFβ2.
Dissociation constants for the binding of aptamers to purified human or rodent TGFβ-2 protein were determined by nitrocellulose-filter partitioning using ^32P-labeled RNA. […]
as §2

Data set [5] deals with T3, TGFβ2 (Homo sapiens, UniProt P61812).
T3 sequence (P61812 303-414 limits assumed): T1 sequence (P61812 303-414 S361T/R362K/K396N) with T59S, K60R, N94K
Put plainly: Nitrocellulose-filter partitioning binding of 32P-labeled aptamer to TGFβ-2 protein. Also on record: A synthetic polynucleotide encoding full length human TGFβ2 mature protein was cloned into pRSET E. coli expression vector; made in house. As for the experimental part: as §1
Nitrocellulose-filter partitioning was performed on Minifold® I, 96-well Dot-Blot manifolds (Schleicher & Schuell). Protein-bound aptamer and residual free aptamer were captured, respectively, on pre-wetted Protran nitrocellulose (Schleicher & Schuell) and Hybond-P polyvinylidene difluoride (Amersham Biosciences) filters by vacuum aspiration, and quantified by PhosphorImager (Amersham Biosciences). The proportion of protein-bound aptamer at each TGFβ-2 concentration was plotted as the ratio of counts-per-minute on the Protran nitrocellulose filter (CPMNC) to the sum of CPM on the Protran and Hybond-P filters (CPMtotal). Estimates of dissociation constants (KD) were obtained from a fit of the concentration of TGFβ-2 (i.e., [TGFβ-2])-dependent data to a standard binding isotherm: CPMNC/CPMtotal=Cmax/(1+KD/[TGFβ2]total), where Cmax equals the maximum observed value of CPMNC/CPMtotal at saturating [TGFβ-2], likely reflecting the proportion of properly-folded aptamer that is competent to recognize TGFβ-2.

The nature of data set [6]: Pharmacokinetics via subconjunctival administration. The data set is classed as in vivo, mice. The procedure: A pharmacokinetic study was performed to determine the pharmacokinetics of ARC81, ARC117 and ARC119, TGFβ2 aptamers having the sequences of SEQ ID NOs:4, 9 and 11, respectively), via subconjunctival administration in mice. These aptamers were formulated at a concentration of 10 mg/ml. Samples were collected at 0, 0.5, 1, 2, 6, 12, 24, 48 and 96 hours post-administration. FIGS. 21A, 21B and 21C show the aqueous humor and/or plasma concentration of each aptamer (in nM) through 50 hours post dose via subconjunctival administration.

In data set [7] the test system is TGFβ2 in rabbit aqueous humor. Put plainly: Aqueous humor challenge assay (MLEC proliferation). The data set is classed as cell-based. The procedure: MLEC Assay. The mink lung epithelial cell proliferation assay is performed over two days. […]
as §5
MLECs were plated at 2,000 cells per well and incubated at 37° C. for 4 hours. […] Cell proliferation was measured using BrdU incorporation. […]

The test system of data set [8] is retinal pigmented epithelial (RPE) cells. The data set can be described thus: RPE cell migration with PDGF. As to conditions: 100 ng/ml PDGF. Type of data set: cell-based. The source says: The graphs presented in FIG. 15E and 15F show the increasing effect of PDGF concentration on RPE cell migration.
Data set [9] concerns the target T3, TGFβ2. The data set can be described thus: Dot blot binding of doped reselection aptamers to TGFβ2. On the set-up: For bio-chemical characterization of these aptamers, two forms of mature TGFβ2 were generated, native and N-terminal his-tagged versions, in E. coli. As to conditions: CW128_103. As for the experimental part: TGFβ2 was serially diluted in DPBS containing 0.2 mg/ml BSA and 0.2 mg/ml tRNA. ^32P-labeled RNA (<20 pM) were incubated with TGFβ2 at room temperature for 30 min. Samples were pipetted with a multichannel pippetor onto a multiwell manifold holding layers of pre-wetted 0.45 micron nitrocellulose, hybond membrane, 3MM filter paper (the order is from top to bottom), aspirated, and washed 3× with DPBS (containing tRNA). All three filters were air dried, exposed to phosphorimager plate, analyzed by ImageQuant.

The mark [10] stands for this setting: 32P-labeled aptamer, nitrocellulose-filter partitioning, fit to Equation 1, read-out: Kd.
The mark [11] stands for this setting: Aq Humour, subconjunctival, 1 mg/eye bilaterally.
Setting [12] is: PLASMA, subconjunctival, 1 mg/eye bilaterally.
The mark [13] stands for this setting: after subconjunctival administration.

Changes are numbered by the printed parent chain. Marks after values point to notes of the source that are not given here. {3T} = T cap written 3T / [3'T]; {NH2} = amine group; m = 2'-O-methyl; r = 2'-OH (RNA); f = 2'-fluoro Some results are limits rather than exact numbers.

Sequence of N-terminal His tagged human TGFβ2 (P61812 303-414 limits assumed): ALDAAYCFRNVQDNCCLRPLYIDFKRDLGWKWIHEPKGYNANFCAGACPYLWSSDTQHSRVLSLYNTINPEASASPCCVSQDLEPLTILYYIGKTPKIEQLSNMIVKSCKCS

In the case of “5′-GGAGGfUfUAfUfUAfCAGAGfUfCfUGfUAfUAGfCfUGfUAfCfUfCfC-3T-3′ (GGAGGUUAUUACAGAGUCUGUAUAGCUGUACUCC; 2'-fluoro at CU, RNA at AG, 3' {3T}, backbone not given here) [ARC77]”, the Kd in data set [1] is 80 ± 5 nM; in [4], no less than 500 nM; in data set [5] (setting [10]) it was 3.6 nM; in [5] (FIG. 6C, read-out: binding affinity, human wild type (WT) TGFβ2) it was 2.5 ± 0.3 nM; in data set [5] (read-out: KD), 1 nM. In [2], the “inhibition of the antiproliferative effects of TGFβ2” value is on record as “inhibit the antiproliferative effects of 50 pg/ml of TGFβ2”. The IC50 in [2] (read-out: cell IC50) amounted to 10 nM. In data set [3], the “potency against human versus rodent form of TGFβ2” value was “more potent against the human form of TGFβ2 than the rodent version”.
On to “5′-NH2-mGmGmGmGfUfUAfUfUmAfCmAmGmAmGfUfCfUGfUAfUAmGfCfUmGfUmAfCfCfC-3T-3′ (GGGGUUAUUACAGAGUCUGUAUAGCUGUACCC; sugars from the 5' end mmmmffrffmfmmmmfffrfrfrmffmfmfff, 5' {NH2}, 3' {3T}, backbone not given here) [ARC81]”, for which, in [6] (setting [11]), the “AUC (0-t)” value came to 36.0 nM·h, the Cmax is 5.19 nM, the MRT was 6.03* h and the TLAST is recorded as 12 h. This substance also had a tmax in data set [6] (setting [11]) of 6 h. Also, in [6] (setting [12]), the “AUC (0-t)” value was 29.8 nM·h, the Cmax was 6.44 nM, the MRT is 3.13 h and the TLAST worked out at 12 h. Besides, in data set [6] (setting [12]), the Vd was 21079 mL, the t1/2 is 2.42 h and the tmax was found to be 1 h. In data set [6] (setting [13]), the “detection in the aqueous humor” value is on record as “detected in the aqueous humor” and the “time to enter systemic circulation” value is reported as “less than 0.5 hour”. The “inhibition of the antiproliferative effects of TGFβ2” value in data set [2] was “inhibit the antiproliferative effects of 50 pg/ml of TGFβ2”. Also, in [7] (1.5% rabbit aqueous humor), the “rescue of rabbit aqueous humor-mediated inhibition of MLEC proliferation” value was “rescued rabbit aqueous humor-mediated inhibition of MLEC proliferation in a dose dependent manner”. Further, the “inhibition of antiproliferative effects of rabbit aqueous humor” value in data set [7] (low concentrations of rabbit aqueous humor (e.g., <10%), 1000 nM ARC81) is on record as “inhibited the antiproliferative effects of low concentrations of rabbit aqueous humor”. Also, in [5] (setting [10]), the Kd was determined as 5.1 nM.
With “5′-[PEG40K]-NH2-dCdAdGfCmGfUdAfCmG-PEG-dCdGTdAdCdCmGdATfUfCmA-PEG-TdGdAdAdGfCfUmG-3T-3′ [ARC128, reference compound]”, in [8], the “blocking of RPE cell migration” value is on record as “has no activity”.
Take “GAfCAGAGfUAfUfUAfUAGAGfUAfUGfUAfUAGfCfUAfUAfCfUGfU[3T] (GACAGAGUAUUAUAGAGUAUGUAUAGCUAUACUGU; 2'-fluoro at CU, RNA at AG, 3' {3T}, backbone not given here) [ARC284, minimized S5R8-45]”: the Kd in data set [9] was found to be 0.11 nM.
